Like-named read-outs stand apart in the source and are kept apart here.
Key:
[1] = test system: KARPAS-422 (EZH2 Y641N mutation); assay: Cell growth inhibition test, KARPAS-422; format: cell-based; conditions: KARPAS-422, culture time 7 days, read-out: Cell growth inhibitory activity (GI50, nM) KARPAS-422 (EZH2 Y641N mutation)
Experimental: Each type of the cultured cells was seeded in 6-well plates or 48-96 well plates, and subculture or medium replacement was performed every 3 to 4 days. Next, the cells were subcultured for a total of 7 to 14 days, and then seeded in 96-well plates. 3 to 5 days before the measurement of the effect, the cells were seeded in 96-well plates, and then the absorbance (Tz) on the day of seeding was measured. The absorbance after the reaction was measured by the plate reader device Synergy NeoAlpha (Biotek) using Cell-Titer-Glo Cell Viability Assay (Promega, G7573) according to the attached manual. Based on the absorbance (Tz) measured on the seeding day and the absorbance of each of the DMSO-treated group (C) and the sample-added group (Ti) measured on the day of effect determination, the percentage of cell proliferation inhibition was calculated according to the following Equation 1. [(Ti−Tz)/(C−Tz)]×100 for concentrations for which Ti≥Tz […] for concentrations for which Ti<Tz. [Equation 1]

EZH2 = EZH2 (Homo sapiens, UniProt Q15910); assay: Inhibitory activity against EZH2 methyltransferase (radiometric scintillation proximity assay); conditions: Enzyme inhibitory activity (IC50, nM) EZH2, 2.3 nmol/L enzyme, 90 minutes, room temperature;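 note: Read-out is substrate peptide methylation, captured on streptavidin-coated SPA beads and counted by scintillation, with the reaction run in Tris-HCl buffer at pH 8.0 containing 1% DMSO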
Experimental: The inhibitory activities of the synthetic compounds against EZH1 or EZH2 methyltransferase were measured. The experiment was conducted by Reaction Biology Corp., and the activity of EZH1 or EZH2 was measured using a radiometric scintillation proximity assay. […] The reaction buffer consisted of 50 mmol/L Tris-HCl (pH 8.0), 50 mmol/L NaCl, 1 mmol/L EDTA, 1 mmoL/L DTT, 1 mmol/L PMSF, and 1% DMSO. Trichloroacetic acid was added to terminate the reaction, and PVT streptavidin-coated SPA beads were added to each reaction solution, followed by further reaction at room temperature for 1 hour again. The methylation value of the substrate peptide was measured using the TopCount NXT plate reader.

[2] = Homo sapiens, KARPAS-422, 168 h

Sequence of EZH2 (Q15910 whole entry): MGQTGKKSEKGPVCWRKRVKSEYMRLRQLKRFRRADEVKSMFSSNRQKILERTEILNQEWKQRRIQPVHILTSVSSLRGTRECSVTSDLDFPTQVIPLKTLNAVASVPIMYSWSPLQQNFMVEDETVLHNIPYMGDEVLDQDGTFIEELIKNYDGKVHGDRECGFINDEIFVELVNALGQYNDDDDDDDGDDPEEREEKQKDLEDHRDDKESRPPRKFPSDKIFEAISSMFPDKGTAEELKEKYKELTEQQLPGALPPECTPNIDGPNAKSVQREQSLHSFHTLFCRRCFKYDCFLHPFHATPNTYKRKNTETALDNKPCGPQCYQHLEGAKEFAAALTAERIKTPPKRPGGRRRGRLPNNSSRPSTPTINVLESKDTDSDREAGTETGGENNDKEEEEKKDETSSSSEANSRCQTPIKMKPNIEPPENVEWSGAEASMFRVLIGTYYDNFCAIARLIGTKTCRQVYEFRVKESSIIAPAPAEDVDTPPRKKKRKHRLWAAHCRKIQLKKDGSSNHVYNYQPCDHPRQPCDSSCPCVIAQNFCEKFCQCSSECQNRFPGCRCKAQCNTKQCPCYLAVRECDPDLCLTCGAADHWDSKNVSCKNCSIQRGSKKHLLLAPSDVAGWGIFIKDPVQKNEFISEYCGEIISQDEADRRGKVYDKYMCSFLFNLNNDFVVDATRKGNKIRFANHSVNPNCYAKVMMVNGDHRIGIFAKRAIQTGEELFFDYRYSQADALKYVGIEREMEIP
Sequence of EZH2 (O75530 whole entry partner): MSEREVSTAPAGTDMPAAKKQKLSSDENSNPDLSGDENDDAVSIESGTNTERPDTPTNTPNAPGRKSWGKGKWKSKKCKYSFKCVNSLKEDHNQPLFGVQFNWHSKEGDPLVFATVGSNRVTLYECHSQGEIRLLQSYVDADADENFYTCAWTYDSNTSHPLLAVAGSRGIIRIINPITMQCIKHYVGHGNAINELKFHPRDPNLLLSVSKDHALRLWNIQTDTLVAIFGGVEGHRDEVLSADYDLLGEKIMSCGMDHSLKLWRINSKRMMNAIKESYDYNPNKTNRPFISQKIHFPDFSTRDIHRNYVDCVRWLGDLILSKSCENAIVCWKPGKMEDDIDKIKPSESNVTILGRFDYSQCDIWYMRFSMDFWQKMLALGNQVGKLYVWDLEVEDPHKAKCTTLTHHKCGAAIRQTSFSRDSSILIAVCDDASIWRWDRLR
Sequence of EZH2 (Q15022 whole entry partner): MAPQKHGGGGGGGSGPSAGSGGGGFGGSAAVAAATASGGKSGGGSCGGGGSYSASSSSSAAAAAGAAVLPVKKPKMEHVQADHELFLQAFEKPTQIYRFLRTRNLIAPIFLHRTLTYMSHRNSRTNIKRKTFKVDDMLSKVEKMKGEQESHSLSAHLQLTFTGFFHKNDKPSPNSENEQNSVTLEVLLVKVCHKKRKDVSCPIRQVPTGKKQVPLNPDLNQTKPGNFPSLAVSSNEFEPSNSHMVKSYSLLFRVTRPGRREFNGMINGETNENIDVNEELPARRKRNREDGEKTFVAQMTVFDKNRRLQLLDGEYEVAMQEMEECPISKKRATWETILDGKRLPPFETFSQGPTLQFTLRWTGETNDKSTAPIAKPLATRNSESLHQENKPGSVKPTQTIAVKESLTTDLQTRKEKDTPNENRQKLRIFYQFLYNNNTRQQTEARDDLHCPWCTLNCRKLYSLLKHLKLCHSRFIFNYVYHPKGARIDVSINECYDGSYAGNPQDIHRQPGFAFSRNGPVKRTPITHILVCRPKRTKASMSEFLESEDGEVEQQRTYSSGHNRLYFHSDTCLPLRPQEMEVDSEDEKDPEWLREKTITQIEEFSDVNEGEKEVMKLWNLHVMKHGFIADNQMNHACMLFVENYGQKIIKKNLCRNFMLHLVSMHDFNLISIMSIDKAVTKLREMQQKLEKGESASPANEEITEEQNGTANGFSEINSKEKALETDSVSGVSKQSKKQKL
Sequence of EZH2 (Q09028 whole entry partner): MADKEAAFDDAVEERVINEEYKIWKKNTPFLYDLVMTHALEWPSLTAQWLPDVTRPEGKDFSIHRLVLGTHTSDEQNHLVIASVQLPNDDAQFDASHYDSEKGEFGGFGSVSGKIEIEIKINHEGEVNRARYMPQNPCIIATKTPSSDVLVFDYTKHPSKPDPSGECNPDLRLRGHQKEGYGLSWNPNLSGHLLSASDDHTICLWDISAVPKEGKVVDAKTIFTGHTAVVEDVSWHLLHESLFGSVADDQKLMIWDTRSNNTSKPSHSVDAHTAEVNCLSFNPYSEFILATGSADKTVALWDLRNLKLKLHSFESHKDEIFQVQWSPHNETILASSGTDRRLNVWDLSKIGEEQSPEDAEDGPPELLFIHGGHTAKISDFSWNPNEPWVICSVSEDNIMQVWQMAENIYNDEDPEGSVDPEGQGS
Sequence of EZH2 (Q6ZN18 whole entry partner): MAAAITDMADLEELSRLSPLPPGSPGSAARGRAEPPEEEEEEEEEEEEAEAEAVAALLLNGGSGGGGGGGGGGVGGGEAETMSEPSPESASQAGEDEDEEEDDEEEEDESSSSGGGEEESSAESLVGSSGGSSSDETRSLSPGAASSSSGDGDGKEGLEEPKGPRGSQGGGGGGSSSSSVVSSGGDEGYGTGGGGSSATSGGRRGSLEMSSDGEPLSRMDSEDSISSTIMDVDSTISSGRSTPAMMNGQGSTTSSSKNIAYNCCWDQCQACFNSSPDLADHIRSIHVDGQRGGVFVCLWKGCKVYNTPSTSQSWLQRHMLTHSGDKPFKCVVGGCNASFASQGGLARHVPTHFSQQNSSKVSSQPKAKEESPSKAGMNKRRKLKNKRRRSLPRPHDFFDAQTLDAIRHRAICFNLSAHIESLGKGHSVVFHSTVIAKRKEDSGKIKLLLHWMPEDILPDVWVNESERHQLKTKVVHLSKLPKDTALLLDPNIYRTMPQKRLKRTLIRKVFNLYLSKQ

GI50 [1, 2]	IC50 (EZH2)	GI50 [1]	Structure (SMILES)
> 1000 nM	–	–	Cc1cc(C)c(CN2CCc3c(Cl)c4c(c(C)c3C2=O)OC(C)(c2ccc3c(ccn3C)c2)O4)c(=O)[nH]1 (stereo not drawn) [Compound 32, 9-chloro-6-((4,6-dimethyl-2-oxo-1,2-dihydropyridin-3-yl)methyl)-2,4-dimethyl-2-(1-methyl-1H-indol-5-yl)-7,8-dihydro-[1,3]dioxolo[4,5-g]isoquinolin-5(6H)-one]
28 nM	–	–	Cc1cc(C)c(CN2CCc3c(c(C)c4c(c3C3CCCCC3)OC(C)([C@H]3CC[C@H](N(C)C)CC3)O4)C2=O)c(=O)[nH]1 (stereo partly drawn) [Compound 60, 9-cyclohexyl-6-((4,6-dimethyl-2-oxo-1,2-dihydropyridin-3-yl)methyl)-2-(trans-4-(dimethylamino)cyclohexyl)-2,4-dimethyl-7,8-dihydro-[1,3]dioxolo[4,5-g]isoquinolin-5(6H)-one]
> 1000 nM	4.4 nM	–	Cc1cc(C)c(CN2CCc3c(Cl)c4c(c(C)c3C2=O)OC(C)(C2CCCC2)O4)c(=O)[nH]1 (stereo not drawn) [Compound 23, 9-chloro-2-cyclopentyl-6-((4,6-dimethyl-2-oxo-1,2-dihydropyridin-3-yl)methyl)-2,4-dimethyl-7,8-dihydro-[1,3]dioxolo[4,5-g]isoquinolin-5(6H)-one]
5 nM	–	–	Cc1cc(C)c(CN2CCc3c(c(C)c4c(c3-c3ccco3)OC(C)([C@H]3CC[C@H](N(C)C)CC3)O4)C2=O)c(=O)[nH]1 (stereo partly drawn) [Compound 64, 6-((4,6-dimethyl-2-oxo-1,2-dihydropyridin-3-yl)methyl)-2-(trans-4-(dimethylamino)cyclohexyl)-9-(furan-2-yl)-2,4-dimethyl-7,8-dihydro-[1,3]dioxolo[4,5-g]isoquinolin-5(6H)-one]
13 nM	3.2 nM	–	Cc1cc(C)c(CN2CCc3c(Cl)c4c(c(C)c3C2=O)OC(C)([C@H]2CC[C@H](N)CC2)O4)c(=O)[nH]1 (stereo partly drawn) [Compound 8, 2-(trans-4-aminocyclohexyl)-9-chloro-6-((4,6-dimethyl-2-oxo-1,2-dihydropyridin-3-yl)methyl)-2,4-dimethyl-7,8-dihydro-[1,3]dioxolo[4,5-g]isoquinolin-5(6H)-one]
6.2 nM	–	–	Cc1cc(C)c(CN2CCc3c(c(C)c4c(c3C(C)C)OC(C)([C@H]3CC[C@H](N(C)C)CC3)O4)C2=O)c(=O)[nH]1 (stereo partly drawn) [Compound 62, 6-((4,6-dimethyl-2-oxo-1,2-dihydropyridin-3-yl)methyl)-2-(trans-4-(dimethylamino)cyclohexyl)-9-isopropyl-2,4-dimethyl-7,8-dihydro-[1,3]dioxolo[4,5-g]isoquinolin-5(6H)-one]
28 nM	–	–	Cc1cc(C)c(CN2CCc3c(c(C)c4c(c3C3=CCCCC3)OC(C)([C@H]3CC[C@H](N(C)C)CC3)O4)C2=O)c(=O)[nH]1 (stereo partly drawn) [Compound 59, 9-(cyclohex-1-en-1-yl)-6-((4,6-dimethyl-2-oxo-1,2-dihydropyridin-3-yl)methyl)-2-(trans-4-(dimethylamino)cyclohexyl)-2,4-dimethyl-7,8-dihydro-[1,3]dioxolo[4,5-g]isoquinolin-5(6H)-one]
–	–	310 nM	Cc1cc(C)c(CN2CCc3c(C)c4c(c(Cl)c3C2=O)OC(C)([C@H]2CC[C@H](N(C)C)CC2)O4)c(=O)[nH]1 (single isomer, unassigned) [Compound 6, 4-chloro-6-((4,6-dimethyl-2-oxo-1,2-dihydropyridin-3-yl)methyl)-2-(trans-4-(dimethylamino)cyclohexyl)-2,9-dimethyl-7,8-dihydro-[1,3]dioxolo[4,5-g]isoquinolin-5(6H)-one]
4.4 nM	–	–	CCc1c2c(c(C)c3c1OC(C)([C@H]1CC[C@H](N(C)C)CC1)O3)C(=O)N(Cc1c(C)cc(C)[nH]c1=O)CC2 (stereo partly drawn) [Compound 63, 6-((4,6-dimethyl-2-oxo-1,2-dihydropyridin-3-yl)methyl)-2-(trans-4-(dimethylamino)cyclohexyl)-9-ethyl-2,4-dimethyl-7,8-dihydro-[1,3]dioxolo[4,5-g]isoquinolin-5(6H)-one]
187 nM	–	–	CO[C@H]1CC[C@H](C2(C)Oc3c(C)c4c(c(Cl)c3O2)CCN(Cc2c(C)cc(C)[nH]c2=O)C4=O)CC1 (stereo partly drawn) [Compound 33, 9-chloro-6-((4,6-dimethyl-2-oxo-1,2-dihydropyridin-3-yl)methyl)-2-(trans-4-methoxycyclohexyl)-2,4-dimethyl-7,8-dihydro-[1,3]dioxolo[4,5-g]isoquinolin-5(6H)-one]
22 nM	–	–	Cc1cc(C)c(CN2CCc3c(Cl)c4c(c(C)c3C2=O)OC(C)([C@@H]2CC[C@H](N(C)C)C2)O4)c(=O)[nH]1 (relative stereo) [Compound 37, 9-chloro-6-((4,6-dimethyl-2-oxo-1,2-dihydropyridin-3-yl)methyl)-2-(cis-3-(dimethylamino)cyclopentyl)-2,4-dimethyl-7,8-dihydro-[1,3]dioxolo[4,5-g]isoquinolin-5(6H)-one]
39 nM	–	–	Cc1cc(C)c(CN2CCc3c(cc4c(c3C)OC(C)([C@H]3CC[C@H](N(C)C)CC3)O4)C2=O)c(=O)[nH]1 (stereo partly drawn) [Compound 3, 6-((4,6-dimethyl-2-oxo-1,2-dihydropyridin-3-yl)methyl)-2-(trans-4-(dimethylamino)cyclohexyl)-2,9-dimethyl-7,8-dihydro-[1,3]dioxolo[4,5-g]isoquinolin-5(6H)-one]
13 nM	–	–	Cc1cc(C)c(CN2CCc3c(c(C)c4c(c3C3=CCCC3)OC(C)([C@H]3CC[C@H](N(C)C)CC3)O4)C2=O)c(=O)[nH]1 (stereo partly drawn) [Compound 57, 9-(cyclopent-1-en-1-yl)-6-((4,6-dimethyl-2-oxo-1,2-dihydropyridin-3-yl)methyl)-2-(trans-4-(dimethylamino)cyclohexyl)-2,4-dimethyl-7,8-dihydro-[1,3]dioxolo[4,5-g]isoquinolin-5(6H)-one]
13 nM	–	–	Cc1cc(C)c(CN2CCc3c(c(C)c4c(c3C3CCCC3)OC(C)([C@H]3CC[C@H](N(C)C)CC3)O4)C2=O)c(=O)[nH]1 (stereo partly drawn) [Compound 58, 9-cyclopentyl-6-((4,6-dimethyl-2-oxo-1,2-dihydropyridin-3-yl)methyl)-2-(trans-4-(dimethylamino)cyclohexyl)-2,4-dimethyl-7,8-dihydro-[1,3]dioxolo[4,5-g]isoquinolin-5(6H)-one]
11 nM	–	–	Cc1cc(C)c(CN2CCc3c(c(C)c4c(c3-c3ccccc3)OC(C)([C@H]3CC[C@H](N(C)C)CC3)O4)C2=O)c(=O)[nH]1 (stereo partly drawn) [Compound 56, 6-((4,6-dimethyl-2-oxo-1,2-dihydropyridin-3-yl)methyl)-2-(trans-4-(dimethylamino)cyclohexyl)-2,4-dimethyl-9-phenyl-7,8-dihydro-[1,3]dioxolo[4,5-g]isoquinolin-5(6H)-one]
8.8 nM	–	–	Cc1cc(C)c(CN2CCc3c(c(C)c4c(c3C3=CCOCC3)OC(C)([C@H]3CC[C@H](N(C)C)CC3)O4)C2=O)c(=O)[nH]1 (stereo partly drawn) [Compound 65]
5.1 nM	–	–	Cc1cc(C)c(CN2CCc3c(c(C)c4c(c3-c3cnn(C)c3)OC(C)([C@H]3CC[C@H](N(C)C)CC3)O4)C2=O)c(=O)[nH]1 (stereo partly drawn) [Compound 68, 6-((4,6-dimethyl-2-oxo-1,2-dihydropyridin-3-yl)methyl)-2-(trans-4-(dimethylamino)cyclohexyl)-2,4-dimethyl-9-(1-methyl-1H-pyrazol-4-yl)-7,8-dihydro-[1,3]dioxolo[4,5-g]isoquinolin-5 (6H)-one]
87 nM	–	–	Cc1cc(C)c(CN2CCc3c(Cl)c4c(c(C)c3C2=O)OC(C)([C@@H]2CCC[C@H](N(C)C)C2)O4)c(=O)[nH]1 (relative stereo) [Compound 36, 9-chloro-6-((4,6-dimethyl-2-oxo-1,2-dihydropyridin-3-yl)methyl)-2-(cis-3-(dimethylamino)cyclohexyl)-2,4-dimethyl-7,8-dihydro-[1,3]dioxolo[4,5-g]isoquinolin-5(6H)-one]
4.3 nM	–	–	Cc1cc(C)c(CN2CCc3c(c(C)c4c(c3-c3cncs3)OC(C)([C@H]3CC[C@H](N(C)C)CC3)O4)C2=O)c(=O)[nH]1 (stereo partly drawn) [Compound 67, 6-((4,6-dimethyl-2-oxo-1,2-dihydropyridin-3-yl)methyl)-2-(trans-4-(dimethylamino)cyclohexyl)-2,4-dimethyl-9-(thiazol-5-yl)-7,8-dihydro-[1,3]dioxolo[4,5-g]isoquinolin-5(6H)-one]
6.4 nM	–	–	Cc1cc(C)c(CN2CCc3c(c(C)c4c(c3-c3cccnc3)OC(C)([C@H]3CC[C@H](N(C)C)CC3)O4)C2=O)c(=O)[nH]1 (stereo partly drawn) [Compound 66, 6-((4,6-dimethyl-2-oxo-1,2-dihydropyridin-3-yl)methyl)-2-(trans-4-(dimethylamino)cyclohexyl)-2,4-dimethyl-9-(pyridin-3-yl)-7,8-dihydro-[1,3]dioxolo[4,5-g]isoquinolin-5(6H)-one]
57 nM	–	–	Cc1cc(C)c(CN2CCc3c(Cl)c4c(c(C)c3C2=O)OC(C)([C@H]2C[C@H](N(C)C)C2)O4)c(=O)[nH]1 (stereo partly drawn) [Compound 35, 9-chloro-6-((4,6-dimethyl-2-oxo-1,2-dihydropyridin-3-yl)methyl)-2-(trans-3-(dimethylamino)cyclobutyl)-2,4-dimethyl-7,8-dihydro-[1,3]dioxolo[4,5-g]isoquinolin-5(6H)-one]
4.8 nM	–	–	C=C(C)c1c2c(c(C)c3c1OC(C)([C@H]1CC[C@H](N(C)C)CC1)O3)C(=O)N(Cc1c(C)cc(C)[nH]c1=O)CC2 (stereo partly drawn) [Compound 61, 6-((4,6-dimethyl-2-oxo-1,2-dihydropyridin-3-yl)methyl)-2-(trans-4-(dimethylamino)cyclohexyl)-2,4-dimethyl-9-(prop-1-en-2-yl)-7,8-dihydro-[1,3]dioxolo[4,5-g]isoquinolin-5(6H)-one]
